Where two headings read alike, the source gives them in different places.
Key:
[1] = Moisture balance (moisture sorption-desorption analysis); type: physicochemical; details: for post-MB XRPD form: after moisture balance
Description: FIG. 6. Moisture sorption-desorption analysis of metaxalone Form A. FIG. 10. Moisture sorption-desorption analysis of metaxalone Form B.

[2] = Storage stability of solid amorphous metaxalone; type: physicochemical
Procedure: A glass vial containing metaxalone Form A was placed in a silicon oil bath at 155° C. Once the solids had melted, the vial was quickly cooled in a dry ice/acetone bath (about −78° C.). Glassy solids resulted.

[3] = pH ˜1.5; cited from earlier work

MB (moisture balance) result [1] | post-MB XRPD form [1] | stability against conversion to a crystalline form when stored [2] | stability against conversion to a crystalline form when stored ([2]; listed as solid amorphous metaxalone) | Compound | solubility at low pH [3]
non-hygroscopic | Form B | – | – | Cc1cc(C)cc(OCC2CNC(=O)O2)c1 (stereo not shown) [Metaxalone Form B, 5-(3′,5′-dimethylphenoxy)methyl-2-oxazolidinone] | –
nonhygroscopic solid | Form A | – | – | Cc1cc(C)cc(OCC2CNC(=O)O2)c1 (stereo not shown) [Metaxalone Form A, 5-(3′,5′-dimethylphenoxy)methyl-2-oxazolidinone] | –
– | – | produce crystalline material | not stable | Cc1cc(C)cc(OCC2CNC(=O)O2)c1 (stereo not shown) [Solid Amorphous Metaxalone, 5-(3′,5′-dimethylphenoxy)methyl-2-oxazolidinone] | –
– | – | – | – | Cc1cc(C)cc(OCC2CNC(=O)O2)c1 (stereo not shown) [Crystalline metaxalone, 5-(3′,5′-dimethylphenoxy)methyl-2-oxazolidinone] | insoluble
